System: Male Long Evans rats
Assay: V-maze test (PCP-disrupted visual-spatial working memory)
Type: in vivo, rat
Settings: p.o. 4 h before test
Source text: The V-maze-test is a two-trial short term visual-spatial working memory task based on spontaneous exploration of a new and a familiar arm in a 2-arm maze (Embrechts et al. (2013) “Longitudinal characterization of the TauPS2APP mouse model of Alzheimer's disease in a two trial discrimination task of visuo-spatial recognition memory”, 45th European Brain and Behaviour Society Meeting 6-9 Sep. 2013, Munich, Abstract P202).
Male Long Evans rats (Janvier, France, body weight 280 to 295 g) were group housed in enriched individually ventilated cages and habituated to environmental conditions for 5 days. After acclimatization, animals were single housed for 4 days until testing. During this period animals were handled for 2 min per day and received sham dosing once a day for 3 days prior to the test. The V-maze consisted of two arms (L×W×H: 70×10×30 cm) at a 90° angle to each other to form a V-shaped maze connected by guillotine doors to a center zone. […] The animal's exploration of each arm was automatically quantified using Ethovision XT 7.0 (Noldus, The Netherlands). […] The time spent in the familiar and new arm respectively during the choice session was recorded for 5 min.
Co. No. 1 was evaluated in rats in a series of dose-response studies evaluating doses from 0.16 to 10 mg/kg. […]

Cc1cc(-c2cnn3c2C(=O)N(c2ccc(C(F)(F)F)cc2)C[C@@H]3C)ccn1 [compound 1, (7S)-7-Methyl-3-(2-methylpyridin-4-yl)-5-[4-(trifluoromethyl)phenyl]-6,7-dihydropyrazolo[1,5-a]pyrazin-4(5H)-one]
reversal effect against PCP observed up to the highest dose tested (PCP 0.75 mg/kg s.c.): ≤ 10 mg/kg
doses at which PCP-challenged rats showed again a clear preference for the new arm (PCP 0.75 mg/kg s.c. 30 min prior, doses 0.16 to 10 mg/kg evaluated): ≥ 0.32 mg/kg
